Experimental data: patent US12448388B2, “PRMT5 inhibitors and uses thereof” (Gilead Sciences, Inc., priority 2023, dated 2025)
Like-named read-outs stand apart in the source and are kept apart here.

Test system: HCT116 MTAP-deleted cell lines
Experiment: Cell viability assay (CellTiter-Glo, 7 days), HCT116 MTAP-deleted
Assay type: cell-based
Conditions: Homo sapiens, HCT-116, HCT116 MTAP-deleted, class symbols, read-out: CC50
Method in brief: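 Dose-response, PRMT5 inhibitors from DMSO serial dilution, pre-spotted; cells seeded onto compound plates. 7 d, 37 °C/5% CO2/90% RH. Readout: CTG luminescence → CC50.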

C[C@@H]1CN(C(=O)c2cc3c(cn2)nc(N)c2cncn23)[C@H]2c3ccc(OC(F)(F)F)cc3C[C@H]2O1 (single isomer, unassigned) [Ff-185]
CC50 (cell viability): < 100 nM

C[C@H]1CN(C(=O)c2cc3c(cn2)nc(N)c2cncn23)[C@H]2c3ccc(OC(F)(F)F)cc3C[C@H]2O1 (single isomer, unassigned) [Ff-186]
CC50 (cell viability): < 100 nM

C[C@@H]1CN(C(=O)c2ccc3nc(N)c4cncn4c3c2)[C@H]2c3ccc(OC(F)(F)F)cc3C[C@H]2O1 (single isomer, unassigned) [Ff-187]
CC50 (cell viability): < 100 nM

C[C@H]1CN(C(=O)c2ccc3nc(N)c4cncn4c3c2)[C@H]2c3ccc(OC(F)(F)F)cc3C[C@H]2O1 (single isomer, unassigned) [Ff-188]
CC50 (cell viability): < 100 nM

Cc1ncc2c(N)nc3ccc(C(=O)N4C[C@@H](C)O[C@@H]5Cc6cc(OC(F)(F)F)ccc6[C@@H]54)cc3n12 (single isomer, unassigned) [Ff-189]
CC50 (cell viability): 100 to 1000 nM

Cc1ncc2c(N)nc3ccc(C(=O)N4C[C@H](C)O[C@@H]5Cc6cc(OC(F)(F)F)ccc6[C@@H]54)cc3n12 (single isomer, unassigned) [Ff-190]
CC50 (cell viability): 100 to 1000 nM

C[C@@H]1CN(C(=O)c2cc3c(cc2F)nc(N)c2cncn23)[C@H]2c3ccc(OC(F)(F)F)c(F)c3C[C@H]2O1 (single isomer, unassigned) [Ff-191]
CC50 (cell viability): < 100 nM

C[C@H]1CN(C(=O)c2cc3c(cc2F)nc(N)c2cncn23)[C@H]2c3ccc(OC(F)(F)F)c(F)c3C[C@H]2O1 (single isomer, unassigned) [Ff-192]
CC50 (cell viability): < 100 nM

C[C@@H]1CN(C(=O)c2cc3c(cn2)nc(N)c2cncn23)[C@H]2c3ccc(OC(F)(F)F)c(F)c3C[C@H]2O1 (single isomer, unassigned) [Ff-193]
CC50 (cell viability): 100 to 1000 nM

C[C@H]1CN(C(=O)c2cc3c(cn2)nc(N)c2cncn23)[C@H]2c3ccc(OC(F)(F)F)c(F)c3C[C@H]2O1 (single isomer, unassigned) [Ff-194]
CC50 (cell viability): 100 to 1000 nM

C[C@@H]1CN(C(=O)c2cc3c(cn2)nc(N)c2cncn23)[C@H]2c3cc(F)c(OC(F)(F)F)cc3C[C@H]2O1 (single isomer, unassigned) [Ff-195]
CC50 (cell viability): < 100 nM

C[C@H]1CN(C(=O)c2cc3c(cn2)nc(N)c2cncn23)[C@H]2c3cc(F)c(OC(F)(F)F)cc3C[C@H]2O1 (single isomer, unassigned) [Ff-196]
CC50 (cell viability): < 100 nM

C[C@H]1CN(C(=O)c2cc3c(cc2F)nc(N)c2cncn23)[C@H]2c3cc(F)c(OC(F)(F)F)cc3C[C@H]2O1 (single isomer, unassigned) [Ff-198]
CC50 (cell viability): < 100 nM

Nc1nc2cc(F)c(C(=O)N3CC(F)(F)CC[C@@H]3c3ccc(C(F)(F)F)cn3)cc2n2cncc12 (single isomer, unassigned) [Ff-242]
CC50 (cell viability): < 100 nM

Nc1nc2cc(F)c(C(=O)N3CC(F)(F)CC[C@H]3c3ccc(C(F)(F)F)cn3)cc2n2cncc12 (single isomer, unassigned) [Ff-243]
CC50 (cell viability): 100 to 1000 nM

Nc1nc2cc(F)c(C(=O)N3C[C@H](F)CC[C@@H]3c3ccc(C(F)(F)F)cn3)cc2n2cncc12 (single isomer, unassigned) [Ff-244]
CC50 (cell viability): < 100 nM

Nc1nc2cc(F)c(C(=O)N3C[C@H](F)CC[C@H]3c3ccc(C(F)(F)F)cn3)cc2n2cncc12 (single isomer, unassigned) [Ff-245]
CC50 (cell viability): 100 to 1000 nM

C[C@@H]1CN(C(=O)c2cc3c(cc2F)nc(N)c2cncn23)[C@H]2c3cc(F)c(C(F)(F)F)cc3C[C@H]2O1 (single isomer, unassigned) [Ff-328]
CC50 (cell viability): < 100 nM

C[C@H]1CN(C(=O)c2cc3c(cc2F)nc(N)c2cncn23)[C@H]2c3cc(F)c(C(F)(F)F)cc3C[C@H]2O1 (single isomer, unassigned) [Ff-329]
CC50 (cell viability): < 100 nM

COc1ccc2c(c1)CO[C@H]1CCCN(C(=O)c3cc4c(cc3F)nc(N)c3cncn34)[C@@H]21 (single isomer, unassigned) [Ff-390]
CC50 (cell viability assay): < 100 nM

C[C@@H]1C[C@@H]2Cc3nc(C(F)(F)F)ccc3[C@@H]2N(C(=O)c2cc3c(cc2F)nc(N)c2cncn23)C1 (single isomer, unassigned) [Ff-393]
CC50 (cell viability assay): < 100 nM

Nc1nc2cc(F)c(C(=O)N3CCC[C@H]4Oc5cc(OC(F)(F)F)ccc5[C@H]43)cc2n2cncc12 (single isomer, unassigned) [Ff-394]
CC50 (cell viability assay): 100 to 1000 nM

Nc1nc2cc(F)c(C(=O)N3CCC[C@@H]4Oc5cc(OC(F)(F)F)ccc5[C@@H]43)cc2n2cncc12 (single isomer, unassigned) [Ff-395]
CC50 (cell viability assay): < 100 nM

Nc1nc2cc(F)c(C(=O)N3CCC[C@@H]4Oc5cc(OC(F)(F)F)c(F)cc5[C@@H]43)cc2n2cncc12 (single isomer, unassigned) [Ff-396]
CC50 (cell viability assay): < 100 nM

Nc1nc2cc(F)c(C(=O)N3CCC[C@H]4Oc5cc(OC(F)(F)F)c(F)cc5[C@H]43)cc2n2cncc12 (single isomer, unassigned) [Ff-397]
CC50 (cell viability assay): 100 to 1000 nM

CN(C(=O)c1cc2c(cc1F)nc(N)c1cncn12)[C@@H]1CCc2cc(C(F)(F)F)ccc21 (single isomer, unassigned) [Ff-398]
CC50 (cell viability assay): < 100 nM

Cc1ncn2c1c(N)nc1ccc(C(=O)N3CCC[C@@H]4Oc5cc(OC(F)(F)F)ccc5[C@@H]43)cc12 (single isomer, unassigned) [Ff-400]
CC50 (cell viability assay): < 100 nM

Cc1ncc2c(N)nc3cnc(C(=O)N4C[C@@H](C)O[C@@H]5Cc6cc(Cl)ccc6[C@@H]54)cc3n12 (single isomer, unassigned) [Ff-463]
CC50 (cell viability assay): 100 to 1000 nM

Cc1ncc2c(N)nc3cnc(C(=O)N4C[C@H](C)O[C@@H]5Cc6cc(Cl)ccc6[C@@H]54)cc3n12 (single isomer, unassigned) [Ff-464]
CC50 (cell viability assay): 100 to 1000 nM

Nc1nc2cc(F)c(C(=O)N3CCO[C@@H]4Cc5cc(F)ccc5[C@@H]43)cc2n2cncc12 (single isomer, unassigned) [Ff-467]
CC50 (cell viability assay): < 100 nM

C[C@@H]1OC[C@H](N(C)C(=O)c2ccc3nc(N)c4cncn4c3c2)c2ccc(C(F)(F)F)cc21 (single isomer, unassigned) [Ff-470]
CC50 (cell viability assay): < 100 nM

C[C@H]1OC[C@@H](N(C)C(=O)c2ccc3nc(N)c4cncn4c3c2)c2ccc(C(F)(F)F)cc21 (single isomer, unassigned) [Ff-471]
CC50 (cell viability assay): < 100 nM

CN(C(=O)c1cc2c(cc1F)nc(N)c1cncn12)[C@@H]1COc2cc([C@@H]3C[C@H]3C#N)ccc21 (single isomer, unassigned) [Ff-480]
CC50 (cell viability assay): < 100 nM

CN(C(=O)c1cc2c(cc1F)nc(N)c1cncn12)[C@@H]1COc2cc([C@H]3C[C@@H]3C#N)ccc21 (single isomer, unassigned) [Ff-481]
CC50 (cell viability assay): < 100 nM

C[C@@H]1CC[C@@H]2Oc3cc(OC(F)(F)F)ccc3[C@@H]2N1C(=O)c1cc2c(cc1F)nc(N)c1cncn12 (single isomer, unassigned) [Ff-491]
CC50 (cell viability assay): < 100 nM

CN(C(=O)c1cc2c(cc1F)nc(N)c1cnc(Br)n12)[C@@H]1COc2cc(C(F)(F)F)ccc21 (single isomer, unassigned) [Ff-493]
CC50 (cell viability assay): 100 to 1000 nM

CN(C(=O)c1cc2c(cc1F)nc(N)c1c(Br)ncn12)[C@@H]1COc2cc(C(F)(F)F)ccc21 (single isomer, unassigned) [Ff-494]
CC50 (cell viability assay): 100 to 1000 nM

Nc1nc2cc(F)c(C(=O)N3CCC[C@@H]4Oc5cc(C(F)(F)F)ccc5[C@@H]43)cc2n2c(Br)ncc12 (single isomer, unassigned) [Ff-495]
CC50 (cell viability assay): 100 to 1000 nM
